The results in this text go back to article PMC5218480 (PLoS ONE, 2017).

In the test the test system is MV-4-11 cells. The test can be described thus: Gene expression microarray analysis (Affymetrix PrimeView) and GSEA. The format is cell-based, human. Also noted: RFU PODN (11730768_x_at) / Fold change /veh PODN (11730768_x_at) / RFU LINC00158 (11744669_a_at) / Fold change /veh LINC00158 (11744669_a_at) / RFU DUSP10 (11751237_a_at) / Fold change /veh DUSP10 (11751237_a_at) / RFU ID3 (11757404_x_at) / Fold change /veh ID3 (11757404_x_at) / RFU PLEKHG5 (11737974_s_at) / Fold change /veh PLEKHG5 (11737974_s_at) / RFU LRRC4B (11730491_at) / Fold change /veh LRRC4B (11730491_at) / RFU GIMAP4 (11747438_a_at) / Fold change /veh GIMAP4 (11747438_a_at) / RFU KRT8 (11758183_x_at) / Fold change /veh KRT8 (11758183_x_at) / RFU CNN1 (11734310_a_at) / Fold change /veh CNN1 (11734310_a_at) / RFU VPS37D (11726825_at) / Fold change /veh VPS37D (11726825_at) / RFU C10orf10 (11716522_x_at) / Fold change /veh C10orf10 (11716522_x_at) / RFU KIR2DL2 /// KIR2DL4 /// KIR2DL5A /// KIR2DL5B /// KIR2DS1 /// KIR2DS2 /// KIR2DS3 /// KIR2DS4 /// KIR3DL3 /// KIR3DL3 /// KIR3DS1 (11738374_at) / Fold change /veh KIR2DL2 /// KIR2DL4 /// KIR2DL5A /// KIR2DL5B /// KIR2DS1 /// KIR2DS2 /// KIR2DS3 /// KIR2DS4 /// KIR3DL3 /// KIR3DL3 /// KIR3DS1 (11738374_at) / RFU C1QL1 (11718748_at) / Fold change /veh C1QL1 (11718748_at) / RFU TMPRSS4 (11747572_a_at) / Fold change /veh TMPRSS4 (11747572_a_at) / RFU HAMP (11756126_x_at) / Fold change /veh HAMP (11756126_x_at) / RFU RNFT2 (11725882_a_at) / Fold change /veh RNFT2 (11725882_a_at) / RFU NR4A2 (11747474_a_at) / Fold change /veh NR4A2 (11747474_a_at) / RFU ABCC12 (11746883_a_at) / Fold change /veh ABCC12 (11746883_a_at) / RFU TMEM136 (11760407_x_at) / Fold change /veh TMEM136 (11760407_x_at) / RFU CLDN22 /// WWC2 (11732394_at) / Fold change /veh CLDN22 /// WWC2 (11732394_at) / RFU HLA-DPB1 (11760878_x_at) / Fold change /veh HLA-DPB1 (11760878_x_at) / RFU SPINT1 (11716480_a_at) / Fold change /veh SPINT1 (11716480_a_at) / RFU GAP43 (11754022_s_at) / Fold change /veh GAP43 (11754022_s_at) / RFU A4GNT (11735810_at) / Fold change /veh A4GNT (11735810_at) / RFU PRB3 (11715151_x_at) / Fold change /veh PRB3 (11715151_x_at) / RFU TUBB4B (11761932_at) / Fold change /veh TUBB4B (11761932_at) / RFU CAPN14 (11732068_a_at) / Fold change /veh CAPN14 (11732068_a_at) / RFU TMCC2 (11721928_a_at) / Fold change /veh TMCC2 (11721928_a_at) / RFU IRGQ (11745062_a_at) / Fold change /veh IRGQ (11745062_a_at) / RFU FAM174B (11720279_a_at) / Fold change /veh FAM174B (11720279_a_at) / RFU TMPRSS4 (11748680_a_at) / Fold change /veh TMPRSS4 (11748680_a_at) / RFU FAM212B (11763350_a_at) / Fold change /veh FAM212B (11763350_a_at) / RFU PLEKHG5 (11743358_a_at) / Fold change /veh PLEKHG5 (11743358_a_at) / RFU ZSCAN30 (11745921_a_at) / Fold change /veh ZSCAN30 (11745921_a_at) / RFU CMKLR1 (11741424_a_at) / Fold change /veh CMKLR1 (11741424_a_at) / RFU LOC101060620 /// MAPK8IP1 (11723275_at) / Fold change /veh LOC101060620 /// MAPK8IP1 (11723275_at) / RFU SPTSSB (11747773_x_at) / Fold change /veh SPTSSB (11747773_x_at) / RFU PRSS12 (11739890_at) / Fold change /veh PRSS12 (11739890_at) / RFU BIN1 (11741810_x_at) / Fold change /veh BIN1 (11741810_x_at) / RFU WNT11 (11732464_a_at) / Fold change /veh WNT11 (11732464_a_at) / RFU C10orf10 (11716521_a_at) / Fold change /veh C10orf10 (11716521_a_at) / RFU C5orf56 (11738089_at) / Fold change /veh C5orf56 (11738089_at) / RFU CYB561 (11721691_x_at) / Fold change /veh CYB561 (11721691_x_at) / RFU ANKRD19P (11752326_a_at) / Fold change /veh ANKRD19P (11752326_a_at) / RFU OR2T12 /// OR2T33 /// OR2T8 (11738714_s_at) / Fold change /veh OR2T12 /// OR2T33 /// OR2T8 (11738714_s_at) / RFU VCAN (11748164_a_at) / Fold change /veh VCAN (11748164_a_at) / RFU JSRP1 (11732532_at) / Fold change /veh JSRP1 (11732532_at) / RFU KRTAP10-11 (11738290_x_at) / Fold change /veh KRTAP10-11 (11738290_x_at) / RFU MYO3A (11730013_a_at) / Fold change /veh MYO3A (11730013_a_at) / RFU EBF3 (11725865_a_at) / Fold change /veh EBF3 (11725865_a_at) / RFU CAMK2N1 (11719241_x_at) / Fold change /veh CAMK2N1 (11719241_x_at) / RFU C5orf56 (11738088_a_at) / Fold change /veh C5orf56 (11738088_a_at) / RFU OLFML3 (11715873_a_at) / Fold change /veh OLFML3 (11715873_a_at) / RFU LOC100653217 /// NTM (11731650_a_at) / Fold change /veh LOC100653217 /// NTM (11731650_a_at) / RFU MAPK11 (11762145_a_at) / Fold change /veh MAPK11 (11762145_a_at) / RFU FIZ1 (11724087_x_at) / Fold change /veh FIZ1 (11724087_x_at) / RFU OASL (11726364_x_at) / Fold change /veh OASL (11726364_x_at) / RFU SOX15 (11748057_x_at) / Fold change /veh SOX15 (11748057_x_at) / RFU CD79A (11719716_a_at) / Fold change /veh CD79A (11719716_a_at) / RFU HIST1H1D (11736915_at) / Fold change /veh HIST1H1D (11736915_at) / RFU CASKIN2 (11723855_a_at) / Fold change /veh CASKIN2 (11723855_a_at) / RFU LOC730098 (11760151_x_at) / Fold change /veh LOC730098 (11760151_x_at) / RFU OR4N2 (11742367_at) / Fold change /veh OR4N2 (11742367_at) / RFU PRRT2 (11749266_a_at) / Fold change /veh PRRT2 (11749266_a_at) / RFU SNX32 (11753110_a_at) / Fold change /veh SNX32 (11753110_a_at) / RFU CDHR5 (11726645_a_at) / Fold change /veh CDHR5 (11726645_a_at) / RFU RCAN1 (11760418_a_at) / Fold change /veh RCAN1 (11760418_a_at) / RFU FAM167A (11723789_a_at) / Fold change /veh FAM167A (11723789_a_at) / RFU FAM26E (11764081_at) / Fold change /veh FAM26E (11764081_at) / RFU ISYNA1 (11749810_s_at) / Fold change /veh ISYNA1 (11749810_s_at) / RFU ACY1 (11761880_at) / Fold change /veh ACY1 (11761880_at) / RFU 11764098_at / Fold change /veh 11764098_at / RFU SAMD14 (11745864_x_at) / Fold change /veh SAMD14 (11745864_x_at) / RFU NPB (11741838_a_at) / Fold change /veh NPB (11741838_a_at) / RFU TMPRSS6 (11731388_a_at) / Fold change /veh TMPRSS6 (11731388_a_at) / RFU KRTAP10-2 (11738614_at) / Fold change /veh KRTAP10-2 (11738614_at) / RFU ARHGAP8 /// PRR5-ARHGAP8 (11727945_x_at) / Fold change /veh ARHGAP8 /// PRR5-ARHGAP8 (11727945_x_at) / RFU KRTAP5-7 /// NADSYN1 (11734609_at) / Fold change /veh KRTAP5-7 /// NADSYN1 (11734609_at) / RFU RASL12 (11751679_a_at) / Fold change /veh RASL12 (11751679_a_at) / RFU CDKN2B (11736163_a_at) / Fold change /veh CDKN2B (11736163_a_at) / RFU PRF1 (11729649_at) / Fold change /veh PRF1 (11729649_at) / RFU, ZNF638 /// ZNF638-IT1 / Fold change vs veh, ZNF638 /// ZNF638-IT1 / RFU, PANK3 / Fold change vs veh, PANK3 / RFU, SH3YL1 / Fold change vs veh, SH3YL1 / RFU, ZEB2 / Fold change vs veh, ZEB2 / RFU, NRIP1 / Fold change vs veh, NRIP1 / RFU, PTTG1IP / Fold change vs veh, PTTG1IP / RFU, CAPN2 / Fold change vs veh, CAPN2 / RFU, MED14 / Fold change vs veh, MED14 / RFU, SNORA58 / Fold change vs veh, SNORA58 / RFU, C1orf63 / Fold change vs veh, C1orf63 / RFU, LRRFIP1 / Fold change vs veh, LRRFIP1 / RFU, NDUFAF7 / Fold change vs veh, NDUFAF7 / RFU, SLC12A2 / Fold change vs veh, SLC12A2 / RFU, IBTK / Fold change vs veh, IBTK / RFU, ESF1 / Fold change vs veh, ESF1 / Fold change vs veh, TMEM50B / RFU, TAOK1 / Fold change vs veh, TAOK1 / RFU, ACBD3 / Fold change vs veh, ACBD3 / RFU, TMA16 / Fold change vs veh, TMA16 / RFU, RWDD3 / Fold change vs veh, RWDD3 / RFU, BCAT1 / Fold change vs veh, BCAT1 / RFU, EDEM3 / Fold change vs veh, EDEM3 / RFU, TMEM33 / Fold change vs veh, TMEM33 / RFU, WDR75 / Fold change vs veh, WDR75 / RFU, AHCTF1 / Fold change vs veh, AHCTF1 / RFU, TFRC / Fold change vs veh, TFRC / RFU, ZDHHC17 / Fold change vs veh, ZDHHC17 / RFU, NOM1 / Fold change vs veh, NOM1 / RFU, ARL8B / Fold change vs veh, ARL8B / RFU, ZBTB11 / Fold change vs veh, ZBTB11 / RFU, TAMM41 / Fold change vs veh, TAMM41 / RFU, KIAA1704 /// LOC100996395 / Fold change vs veh, KIAA1704 /// LOC100996395 / RFU, ING1 / Fold change vs veh, ING1 / RFU, TRMT61B / Fold change vs veh, TRMT61B / RFU, FUBP3 / Fold change vs veh, FUBP3 / RFU, TP53 / Fold change vs veh, TP53 / RFU, TNKS2 / Fold change vs veh, TNKS2 / RFU, ZFP14 / Fold change vs veh, ZFP14 / RFU, ACTR2 / Fold change vs veh, ACTR2 / RFU, PPP3R1 / Fold change vs veh, PPP3R1 / RFU, PIK3R1 / Fold change vs veh, PIK3R1 / RFU, HNRNPA1 / Fold change vs veh, HNRNPA1 / RFU, RNF170 / Fold change vs veh, RNF170 / RFU, ZNF28 / Fold change vs veh, ZNF28 / RFU, RNGTT / Fold change vs veh, RNGTT / RFU, OGT / Fold change vs veh, OGT / RFU, BRD1 / Fold change vs veh, BRD1 / RFU, MARS / Fold change vs veh, MARS / RFU, ZNF655 / Fold change vs veh, ZNF655 / RFU, FAHD1 / Fold change vs veh, FAHD1 / RFU, BDP1 / Fold change vs veh, BDP1 / RFU, LRRCC1 / Fold change vs veh, LRRCC1 / RFU, ARID1A / Fold change vs veh, ARID1A / RFU, ZNF146 / Fold change vs veh, ZNF146 / RFU, ZNF330 / Fold change vs veh, ZNF330 / RFU, GPN3 / Fold change vs veh, GPN3 / RFU, C9orf123 / Fold change vs veh, C9orf123 / RFU, N4BP2L2 / Fold change vs veh, N4BP2L2 / RFU, ARFIP1 / Fold change vs veh, ARFIP1 / RFU, FAM179B / Fold change vs veh, FAM179B / RFU, BCL10 / Fold change vs veh, BCL10 / RFU, UHRF1BP1L / Fold change vs veh, UHRF1BP1L / RFU, BET1 / Fold change vs veh, BET1 / RFU, CNOT2 / Fold change vs veh, CNOT2 / RFU, ZNF268 / Fold change vs veh, ZNF268 / Fold change vs veh, ZNF507 / RFU, DGCR2 / Fold change vs veh, DGCR2 / RFU, WDSUB1 / Fold change vs veh, WDSUB1 / Fold change vs veh, HSP90B1 /// MIR3652 / RFU, ADSS / Fold change vs veh, ADSS / RFU, GK / Fold change vs veh, GK / RFU, ZNF148 / Fold change vs veh, ZNF148 / RFU, TAF9 / Fold change vs veh, TAF9 / RFU, SLC1A5 / Fold change vs veh, SLC1A5 / RFU, SLMO2 / Fold change vs veh, SLMO2 / RFU, ABCC4 / Fold change vs veh, ABCC4 / RFU, LOC101060439 /// RAP1B / Fold change vs veh, LOC101060439 /// RAP1B / RFU, RFX7 / Fold change vs veh, RFX7 / RFU, GTPBP10 / Fold change vs veh, GTPBP10 / RFU, CNEP1R1 / Fold change vs veh, CNEP1R1 / RFU, BIVM-ERCC5 /// ERCC5 / Fold change vs veh, BIVM-ERCC5 /// ERCC5 / RFU, ILF3 / Fold change vs veh, ILF3 / RFU 11762660_at / Fold change /veh 11762660_at / RFU VCAN (11757783_s_at) / Fold change /veh VCAN (11757783_s_at) / RFU DDX43 (11728927_at) / Fold change /veh DDX43 (11728927_at) / RFU KRT8 (11758188_x_at) / Fold change /veh KRT8 (11758188_x_at) / RFU NKD1 (11759106_at) / Fold change /veh NKD1 (11759106_at) / RFU SRD5A1 (11742802_a_at) / Fold change /veh SRD5A1 (11742802_a_at) / RFU TPSAB1 /// TPSB2 (11721975_s_at) / Fold change /veh TPSAB1 /// TPSB2 (11721975_s_at) / RFU GSTM3 (11746129_a_at) / Fold change /veh GSTM3 (11746129_a_at) / RFU IL23R (11737362_x_at) / Fold change /veh IL23R (11737362_x_at) / RFU TMEM51 (11727254_a_at) / Fold change /veh TMEM51 (11727254_a_at) / RFU PIWIL2 (11732686_x_at) / Fold change /veh PIWIL2 (11732686_x_at) / RFU ORM1 (11744905_x_at) / Fold change /veh ORM1 (11744905_x_at) / RFU CCDC152 (11743942_at) / Fold change /veh CCDC152 (11743942_at) / RFU ECM1 (11717891_a_at) / Fold change /veh ECM1 (11717891_a_at) / RFU IL23R (11748794_a_at) / Fold change /veh IL23R (11748794_a_at) / RFU TNFAIP8L3 (11732012_x_at) / Fold change /veh TNFAIP8L3 (11732012_x_at) / RFU MBOAT4 (11741988_at) / Fold change /veh MBOAT4 (11741988_at) / RFU 11764193_at / Fold change /veh 11764193_at / RFU TMEM53 (11763286_at) / Fold change /veh TMEM53 (11763286_at) / RFU MAGEB2 (11727129_at) / Fold change /veh MAGEB2 (11727129_at) / RFU TMEM200A (11744735_a_at) / Fold change /veh TMEM200A (11744735_a_at) / RFU CCDC152 (11751479_a_at) / Fold change /veh CCDC152 (11751479_a_at) / RFU FAM211A (11726209_a_at) / Fold change /veh FAM211A (11726209_a_at) / RFU RGS16 (11746705_a_at) / Fold change /veh RGS16 (11746705_a_at) / RFU VCAN (11755009_s_at) / Fold change /veh VCAN (11755009_s_at) / RFU RHOB (11743442_s_at) / Fold change /veh RHOB (11743442_s_at) / RFU RGS16 (11720943_a_at) / Fold change /veh RGS16 (11720943_a_at) / RFU RGS16 (11720944_at) / Fold change /veh RGS16 (11720944_at) / RFU, VPS4B / Fold change vs veh, VPS4B / RFU, CREB1 / Fold change vs veh, CREB1 / RFU, DNAJC13 / Fold change vs veh, DNAJC13 / RFU, GNAQ / Fold change vs veh, GNAQ / RFU, CDK5R1 / Fold change vs veh, CDK5R1 / RFU, ZRANB3 / Fold change vs veh, ZRANB3 / RFU, CUL4A / Fold change vs veh, CUL4A / RFU, CCNY / Fold change vs veh, CCNY / RFU, UFL1 / Fold change vs veh, UFL1 / RFU, COG3 / Fold change vs veh, COG3 / RFU, DIAPH2 / Fold change vs veh, DIAPH2 / RFU, SKA2 / Fold change vs veh, SKA2 / RFU, AFF3 / Fold change vs veh, AFF3 / RFU, LMF1 / Fold change vs veh, LMF1 / RFU, IPO11 / Fold change vs veh, IPO11 / RFU, DFFB / Fold change vs veh, DFFB / RFU, FOXP1 / Fold change vs veh, FOXP1 / RFU, CARD8 / Fold change vs veh, CARD8 / RFU, STRN3 / Fold change vs veh, STRN3 / RFU, ADK / Fold change vs veh, ADK / RFU, RASSF2 / Fold change vs veh, RASSF2 / RFU, WIPF1 / Fold change vs veh, WIPF1 / RFU, LARP1B / Fold change vs veh, LARP1B / RFU, RASA1 / Fold change vs veh, RASA1 / RFU, RB1 / Fold change vs veh, RB1 / RFU, PPFIA1 / Fold change vs veh, PPFIA1 / RFU, MAT2A / Fold change vs veh, MAT2A / RFU, CCT5 / Fold change vs veh, CCT5 / RFU, WDR92 / Fold change vs veh, WDR92 / RFU, CUX1 / Fold change vs veh, CUX1 / RFU, TTC7A / Fold change vs veh, TTC7A / RFU, TMEM135 / Fold change vs veh, TMEM135 / RFU, DEPTOR / Fold change vs veh, DEPTOR / RFU, CPM / Fold change vs veh, CPM / RFU, DNAJB6 / Fold change vs veh, DNAJB6 / RFU, CACNA2D3 / Fold change vs veh, CACNA2D3 / RFU, DTX4 / Fold change vs veh, DTX4 / RFU, TFCP2 / Fold change vs veh, TFCP2 / RFU, GMCL1 /// GMCL1P1 / Fold change vs veh, GMCL1 /// GMCL1P1 / RFU, AEBP2 / Fold change vs veh, AEBP2 / RFU, SNHG1 /// SNORD22 /// SNORD25 /// SNORD26 /// SNORD27 /// SNORD28 /// SNORD29 /// SNORD31 / Fold change vs veh, SNHG1 /// SNORD22 /// SNORD25 /// SNORD26 /// SNORD27 /// SNORD28 /// SNORD29 /// SNORD31 / Fold change (Aza/veh), C12orf56 (ProbeSet 11735607_a_at) / Fold change (ACY-1035/veh), C12orf56 (ProbeSet 11735607_a_at) / Fold change (Aza/veh), FGFR1OP (ProbeSet 11751329_s_at) / Fold change (ACY-1035/veh), FGFR1OP (ProbeSet 11751329_s_at) / Fold change (Aza/veh), VPS36 (ProbeSet 11739960_a_at) / Fold change (ACY-1035/veh), VPS36 (ProbeSet 11739960_a_at) / RFU SYPL1 (11715823_x_at) / Fold change /veh SYPL1 (11715823_x_at) / RFU IGFBP7 (11715501_s_at) / Fold change /veh IGFBP7 (11715501_s_at) / RFU REEP3 (11722064_at) / Fold change /veh REEP3 (11722064_at) / RFU IGLL1 (11728026_x_at) / Fold change /veh IGLL1 (11728026_x_at): dose or concentration left out as unconfirmed. To be noted: ProbeSet 11757268_x_at; LIST B.

Molecules are shown by their SMILES.

Regarding `Nc1ccc(-c2cccs2)cc1NC(=O)c1ccc2c(c1)cc(C1CC1)n2CCN1CCOCC1` [ACY-1035], the “RFU, HNRNPA1” value is 4786.54 RFU.
